Where two headings read alike, the source gives them in different places.
Target: T1, human factor Xa (Homo sapiens, UniProt P00742)
T1 construct: 25 μl human factor Xa (Enzyme Research Laboratories, Inc; South Bend, Ind.); purchased Enzyme Research Laboratories, Inc; South Bend, Ind
Assay: Factor Xa chromogenic assay (substrate S-2765);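 also: purified enzyme, compound preincubated with the enzyme for 10 min before substrate addition starts the reaction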
Type: biochemical
Settings: read-out: Ki(FXa)

T1 sequence (P00742 235-488 limits assumed): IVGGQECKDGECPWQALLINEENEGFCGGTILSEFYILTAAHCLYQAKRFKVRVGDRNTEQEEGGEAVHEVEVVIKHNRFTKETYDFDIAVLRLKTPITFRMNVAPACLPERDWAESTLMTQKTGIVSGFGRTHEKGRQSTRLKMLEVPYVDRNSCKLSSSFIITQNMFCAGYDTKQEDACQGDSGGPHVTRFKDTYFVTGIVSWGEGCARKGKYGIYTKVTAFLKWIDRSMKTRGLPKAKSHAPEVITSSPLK
T1 sequence (P00742 41-179 partner limits assumed): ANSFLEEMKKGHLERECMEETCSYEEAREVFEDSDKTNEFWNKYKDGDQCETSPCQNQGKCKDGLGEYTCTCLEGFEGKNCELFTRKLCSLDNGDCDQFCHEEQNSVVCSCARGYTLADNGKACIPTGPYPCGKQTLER

SMILES	Ki [nM]	Ki (inhibition constant for inhibition of factor Xa, IC50 corrected for substrate competition, 25° C., enzyme 0.5 nM, substrate 140 μM) [nM]
CCOc1cc(C(=O)N2CCN(Cc3ccncc3)CC2)cc(OCCc2ccc(Cl)cc2Cl)c1OCC [Example 177, {3-[2-(2,4-Dichloro-phenyl)-ethoxy]-4,5-diethoxy-phenyl}-(4-pyridin-4-ylmethyl-piperazin-1-yl)-methanone]	226	–
CCOc1cc(C(=O)N2CCN(Cc3ccncc3)CC2)cc(OCCc2ccc(Cl)cc2Cl)c1Br [Example 180, {4-Bromo-3-[2-(2,4-dichloro-phenyl)-ethoxy]-5-ethoxy-phenyl}-(4-pyridin-4-ylmethyl-piperazin-1-yl)-methanone]	255	–
O=C(c1ccc(Cl)c(OCCc2ccc(Cl)cc2Cl)c1)N1CCN(Cc2ccncc2)CC1 [Example 182, {4-Chloro-3-[2-(2,4-dichloro-phenyl)-ethoxy]-phenyl}-(4-pyridin-4-ylmethyl-piperazin-1-yl)-methanone]	312	–
CC(C)Oc1ccc(C(=O)N2CCN(Cc3ccncc3)CC2)cc1OCCc1ccc(Cl)cc1Cl [Example 184, {3-[2-(2,4-Dichloro-phenyl)-ethoxy]-4-isopropoxy-phenyl}-(4-pyridin-4-ylmethyl-piperazin-1-yl)-methanone]	617	–
O=C(c1cc(OCCc2ccc(Cl)cc2Cl)c2c(c1)OCO2)N1CCN(Cc2ccncc2)CC1 [Example 186, {7-[2-(2,4-Dichloro-phenyl)-ethoxy]-benzo[1,3]dioxol-5-yl}-(4-pyridin-4-ylmethyl-piperazin-1-yl)-methanone]	401	–
O=C(c1ccc(Cl)c(OCCc2ccc(Cl)cc2Cl)c1)N1CCN(Cc2cc[n+](O)cc2)CC1 [Example 187, {4-Chloro-3-[2-(2,4-dichloro-phenyl)-ethoxy]-phenyl}-[4-(1-oxy-pyridin-4-ylmethyl)-piperazin-1-yl]-methanone]	964	–
COc1ccc(C(=O)N2CCN(CCCN(C)C)CC2)cc1OCCc1ccc(Cl)cc1Cl [Example 195]	6740	–
COc1ccc(C(=O)N2CCCN(CCCN3CCCC3)CC2)cc1OCCc1ccc(Cl)cc1Cl [Example 196]	4270	–
COc1ccc(C(=O)N2CCN(CCN(C)C)CC2)cc1OCCc1ccc(Cl)cc1Cl [Example 197]	6030	–
COc1ccc(C(=O)N2CCN(CCN3CCCC3)CC2)cc1OCCc1ccc(Cl)cc1Cl [Example 198]	5000	–
COc1cc(C(=O)N2CCN(Cc3ccncc3)CC2)cc(OCCc2ccc(Cl)cc2Cl)c1Cl [Example 200, {4-Chloro-3-[2-(2,4-dichloro-phenyl)-ethoxy]-5-methoxy-phenyl}-(4-pyridin-4-ylmethyl-piperazin-1-yl)-methanone]	108	–
COc1cc(C(=O)NCC2CCN(c3ccncc3)CC2)cc(OCCc2ccc(Cl)cc2)c1Cl [Example 202, 4-Chloro-3-[2-(4-chloro-phenyl)-ethoxy]-5-methoxy-N-(3,4,5,6-tetrahydro-2H-[1,4′]bipyridinyl-4-ylmethyl)-benzamide]	–	25
O=C(NCC1CCN(c2ccncc2)CC1)c1ccc(Cl)c(OCCc2ccc(F)cc2Cl)c1 [Example 207]	68	–
O=C(NCC1CCN(c2ccncc2)CC1)c1ccc(F)c(OCCc2ccc(F)cc2Cl)c1 [Example 215]	59	–
COc1cc(C(=O)NCC2CCN(c3ccnc(C)c3)CC2)cc(OCCc2ccc(Cl)cc2)c1Cl [Example 222, 4-Chloro-3-[2-(4-chloro-phenyl)-ethoxy]-5-methoxy-N-(2′-methyl-3,4,5,6-tetrahydro-2H-[1,4′]bipyridinyl-4-ylmethyl)-benzamide]	72	–
Cc1cc(N2CCC(CNC(=O)c3ccc(Cl)c(OCCc4ccc(Cl)cc4)c3)CC2)ccn1 [Example 223, 4-Chloro-3-[2-(4-chloro-phenyl)-ethoxy]-N-(2′-methyl-3,4,5,6-tetrahydro-2H-[1,4′]bipyridinyl-4-ylmethyl)-benzamide]	44	–
COc1cc(C(=O)NCC2CCN(c3ccncc3)CC2)cc(OCCc2ccc(Cl)cc2)c1Br [Example 224, 4-Bromo-3-[2-(4-chloro-phenyl)-ethoxy]-5-methoxy-N-(3,4,5,6-tetrahydro-2H-[1,4′]bipyridinyl-4-ylmethyl)-benzamide]	20	–
COc1cc(C(=O)NCC2CCN(c3ccnc(C)c3)CC2)cc(OCCc2ccc(Cl)cc2)c1Br [Example 225, 4-Bromo-3-[2-(4-chloro-phenyl)-ethoxy]-5-methoxy-N-(2′-methyl-3,4,5,6-tetrahydro-2H-[1,4′]bipyridinyl-4-ylmethyl)-benzamide]	65	–
O=C(O)c1cc(OCCc2ccc(Cl)cc2Cl)cc(C(=O)NCC2CCN(c3ccncc3)CC2)c1 [Example 226, 5-[2-(2,4-Dichlorophenyl)-ethoxy]-N-(3,4,5,6-tetrahydro-2H-[1,4′]bipyridinyl-4-ylmethyl)-isophthalamic acid]	82	–
O=C(NCC1CCN(c2ccncc2)CC1)c1cc(OCCc2ccc(Cl)cc2Cl)cc(C(=O)NCC2CCN(c3ccncc3)CC2)c1 [Example 227, 5-[2-(2,4-Dichloro-phenyl)-ethoxy]-N,N′-bis-(3,4,5,6-tetrahydro-2H-[1,4′]bipyridinyl-4-ylmethyl)-isophthalamide]	58	–
COc1cc(C(=O)NCC2CCN(c3cc[n+](O)cc3)CC2)cc(OCCc2ccc(Cl)cc2Cl)c1Cl [Example 228, 4-Chloro-3-[2-(2,4-dichloro-phenyl)-ethoxy]-5-methoxy-N-(1′-oxy-3,4,5,6-tetrahydro-2H-[1,4′]bipyridinyl-4-ylmethyl)-benzamide]	220	–
O=C(NCC1CCN(c2cc[n+](O)cc2)CC1)c1ccc(Cl)c(OCCc2ccc(Cl)cc2Cl)c1 [Example 230, 4-Chloro-3-[2-(2,4-dichloro-phenyl)-ethoxy]-N-(1′-oxy-3,4,5,6-tetrahydro-2H-[1,4′]bipyridinyl-4-ylmethyl)-benzamide]	649	–
O=C(NCC1CCN(c2cc[n+](O)cc2)CC1)c1ccc(Cl)c(OCCc2ccc(Cl)cc2)c1 [Example 231, 4-Chloro-3-[2-(4-chloro-phenyl)-ethoxy]-N-(1′-oxy-3,4,5,6-tetrahydro-2H-[1,4′]bipyridinyl-4-ylmethyl)-benzamide]	227	–
CCN(CC)C(=O)c1cc(OCCc2ccc(Cl)cc2Cl)cc(C(=O)NCC2CCN(c3ccncc3)CC2)c1 [Example 232, 5-[2-(2,4-Dichloro-phenyl)-ethoxy]-N,N-diethyl-N′-(3,4,5,6-tetrahydro-2H-[1,4′]bipyridinyl-4-ylmethyl)-isophthalamide]	192	–
O=C(NCC1CCN(c2ccncc2)CC1)c1cccc(CNCc2ccc(Cl)cc2Cl)c1 [Example 233, 3-[(2,4-Dichloro-benzylamino)-methyl]-N-(3,4,5,6-tetrahydro-2H-[1,4′]bipyridinyl-4-ylmethyl)-benzamide]	275	–
Cc1ccc(C(=O)NCC2CCN(c3ccncc3)CC2)cc1OCc1ccc(Cl)cc1 [Example 239]	3840	–
COc1ccc(COc2cc(C(=O)NCC3CCN(c4ccncc4)CC3)ccc2C)cc1 [Example 240]	1340	–
COc1cccc(COc2cc(C(=O)NCC3CCN(c4ccncc4)CC3)ccc2C)c1 [Example 241]	2170	–
Cc1ccc(C(=O)NCC2CCN(c3ccncc3)CC2)cc1OCc1ccc(OC(F)(F)F)cc1 [Example 242]	2940	–

From patent US7067665B2, “Oxybenzamide derivatives useful for inhibiting factor Xa or Vlla” (Sanofi-Aventis Deutschland GmbH, priority 2000, dated 2006)
